{"source": "patent US20080235824A1", "about": "“Use of Esterase Genes as Selectable Markers for Transforming Plant Cells” (priority 2006, published 2008)", "key": {"[1]": {"tested_on": "geranium petiole explants", "assay": "Survival of geranium petiole explants on regeneration medium with detergents", "type": "cell-based, Pelargonium X hortorum", "conditions": "for Survival of geranium petiole explants on regeneration medium: surviving/total explants", "description": "Tween 20, a nonionic, fatty acid ester detergent, was evaluated as a potential selective agent for use in geranium (Pelargonium X hortorum) transformation experiments by placing geranium petiole explants into tissue culture with the addition to Tween 20 to the regeneration (shooting) medium normally used in geranium transformations (Robichon et al., 1995). Tween 20 was added at three concentrations: 1%, 0.1% and 0.01%. Each treatment consisted of 40 sterilized petiole explants placed in four tissue culture plates carrying 10 explants each. Survival of the explants was assayed weekly over four weeks on these media. Potential selective agent Span 20, also a nonionic, fatty acid ester detergent, was similarly evaluated, except that concentrations of 1%, 0.5% and 0.25% were evaluated over a twelve week period of time. The nonionic detergent Triton X-100, which is not a fatty acid ester detergent, was included for comparative purposes."}, "[2]": {"tested_on": "tobacco cultivar Xanthi leaf explants", "assay": "Agrobacterium transformation of tobacco with selection on detergent or kanamycin", "type": "cell-based, Nicotiana tabacum", "conditions": "for Transformation frequency (%): confirmed by PCR", "source_text": "Transgenic tobacco (Nicotiana tabacum) cultivar “Xanthi” plants were created using the Agrobacterium tumefaciens DNA delivery method [Horsch et al., 1985] using pIPG833. Selection was on 1% or on 0.05% Tween 20 added to both shoot and root regeneration media. As a control for comparative purposes, pIPG786 was used (carrying the nptII gene for kanamycin resistance) for transformation and 100 micrograms/ml kanamycin was used for selection.\nTransgenic tobacco (Nicotiana tabacum) cultivar “Xanthi” plants were created using the Agrobacterium tumefaciens DNA delivery method [Horsch et al., 1985] using pIPG833. Selection was on 1% or on 0.05% Span 20 added to both shoot and root regeneration media.\nTransgenic tobacco (Nicotiana tabacum) cultivar “Xanthi” plants were created using the Agrobacterium tumefaciens DNA delivery method [Horsch et al., 1985] using pIPG875. Selection was on 1% Span 20 added to the shoot regeneration medium and 0.05% Span 20 added to the root regeneration medium."}, "rice grain explants": {"tested_on": "rice grain explants", "assay": "Survival of rice grain explants on regeneration medium with Span 20", "type": "cell-based, Oryza sativa japonica var. TP-309", "conditions": "for Survival of rice grain explants on regeneration medium: surviving/total explants", "description": "Span 20 was evaluated as a potential selective agent for use in transformation of rice (Oryza sativa japonica var. TP-309) in a manner similar to that described in Examples 1 and 2, except that the regeneration (shooting) medium used was appropriate for regeneration of rice from callus produced from seeds (Hiei et al., 1997). Selection of rice normally requires longer periods of time than geranium or tomato."}, "[3]": {"tested_on": "rice var. TP-309 callus produced from seeds", "assay": "Agrobacterium transformation of rice with selection on Span 20", "type": "cell-based, Oryza sativa japonica var. TP-309", "conditions": "for No. of rooted shoots / Transformation frequency (%) / No. of shoots emerged from seed-derived callus: rice TP-309, pIPG833 bovine PGE, 60 explants; for Transformation frequency (%): confirmed by PCR; for No. of shoots emerged from seed-derived callus: half in root medium", "source_text": "Transgenic rice (Oryza sativa japonica var. TP-309) plants were created using the Agrobacterium tumefaciens DNA delivery method and pIPG833, using callus produced from seeds (Hiei et al., 1997). Selection of was on 1% and 0.5% Span 20 added to shoot regeneration medium; any shoots that emerged were excised from the callus and transferred to root regeneration medium supplemented with Span 20 at one half the concentration used in the shoot regeneration medium. Span 20 at 1% concentration killed over 90% of the callus pieces after 15 weeks and since no shoots emerged, the experiment was terminated. However, three shoots out of 60 rice seeds initially placed into tissue culture emerged on Span 20 and two of these were positive for bovine PGE."}, "[4]": {"tested_on": "geranium cv. Avenida leaf petiole explants", "assay": "Agrobacterium transformation of geranium with selection on Span 20 or hygromycin", "type": "cell-based, Pelargonium X hortorum", "conditions": "for No. of rooted shoots / Transformation frequency (%) / No. of independent petiole explants forming shoots: geranium Avenida, pIPG833 bovine PGE, 160 explants; for Transformation frequency (%): confirmed by PCR; for No. of independent petiole explants forming shoots: half in root medium; for Leaf petioles killed: Span 20 at 1%", "source_text": "Transgenic geranium (Pelargonium X hortorum) cv. “Avenida” plants were created using the Agrobacterium tumefaciens DNA delivery method [Riggs et al., 2001; Sun et al., 2006] using pIPG833. Selection of leaf petiole explants was on 1%, 0.5% and 0.25% Span 20 added to shoot regeneration medium; beginning after three weeks, any shoots that emerged were excised from the petiole piece and transferred to root regeneration medium supplemented with Span at one half the concentration used in the shoot regeneration medium. As a control for comparative purposes, pIPG835 was used (carrying the hygromycin antibiotic resistance gene) for transformation and 10 micrograms/ml hygromycin was used for selection. Span 20 at 1% concentration killed 35% of the leaf petioles after three weeks, and 100% of the petioles after 10 weeks, and no shoots emerged. Span 20 at 0.5% concentration was highly efficient for geranium transformation, allowing no escapes and giving the same confirmed transformation frequency as Span 20 at 0.25%."}, "[5]": {"tested_on": "tobacco cultivar Xanthi leaf explants", "assay": "Agrobacterium transformation of tobacco with selection on detergent or kanamycin", "type": "cell-based, Nicotiana tabacum", "conditions": "pIPG833 bovine PGE, 0.5% Span 20, 70 explants"}, "[6]": {"conditions": "tobacco Xanthi, nematode lipase (pIPG875), 1% Span 20 shoot medium, 0.05% root medium, 50 explants"}, "[7]": {"conditions": "tobacco Xanthi, pIPG833 bovine PGE, 0.5% Span 20, 70 explants"}, "[8]": {"conditions": "tobacco Xanthi, pIPG833 bovine PGE, 1% Span 20, 75 explants"}}, "data": [{"smiles": "CCCCCCCCCCCC(=O)OCC(O)C1OCC(O)C1O", "note": "(stereo not drawn) [Span 20]", "values": [{"measurement": "Survival of geranium petiole explants on regeneration medium", "setting": "[1]; 0.5% detergent, Week 1", "result": "46/46"}, {"measurement": "Survival of geranium petiole explants on regeneration medium", "setting": "[1]; 0.5% detergent, Week 3", "result": "35/46"}, {"measurement": "Survival of geranium petiole explants on regeneration medium", "setting": "[1]; 0.5% detergent, Week 7", "result": "23/46"}, {"measurement": "Survival of geranium petiole explants on regeneration medium", "setting": "[1]; 0.5% detergent, Week 12", "result": "5/46"}, {"measurement": "Survival of geranium petiole explants on regeneration medium", "setting": "[1]; 1% detergent, Week 1", "result": "114/114"}, {"measurement": "Survival of geranium petiole explants on regeneration medium", "setting": "[1]; 1% detergent, Week 3", "result": "74/114"}, {"measurement": "Survival of geranium petiole explants on regeneration medium", "setting": "[1]; 1% detergent, Week 7", "result": "11/114"}, {"measurement": "Survival of geranium petiole explants on regeneration medium", "setting": "[1]; 1% detergent, Week 12", "result": "0/114"}, {"measurement": "Killing of geranium explants in tissue culture (in words)", "setting": "[1]; summary of Table 1", "result": "required twelve weeks to completely kill all geranium explants at the 1% level"}, {"measurement": "Tissue provided with pIPG833 producing shoots", "setting": "[2]; regeneration medium with 0.05% detergent", "result": 41, "unit": "%"}, {"measurement": "Tobacco leaf material provided with bovine PGE on pIPG833 producing green shoots", "setting": "[2]; regeneration medium with 1% detergent", "result": 17, "unit": "%"}, {"measurement": "No. of independent calli forming shoots", "setting": "[2]; [6]", "result": 23}, {"measurement": "No. of rooted shoots", "setting": "[2]; [6]", "result": 10}, {"measurement": "Transformation frequency (%)", "setting": "[2]; [6]", "result": 39, "unit": "%"}, {"measurement": "Transformation efficiency", "setting": "[2]; tobacco Xanthi, pIPG833, detergent at the 0.05% level", "result": 12, "unit": "%"}, {"measurement": "No. of independent calli forming shoots", "setting": "[2]; [7]", "result": 29}, {"measurement": "Transformation frequency (%)", "setting": "[2]; [7]", "result": 12, "unit": "%"}, {"measurement": "No. of rooted shoots", "setting": "[2]; [8]", "result": 13}, {"measurement": "Transformation frequency (%)", "setting": "[2]; [8]", "result": 8, "unit": "%"}, {"measurement": "No. of independent calli forming shoots", "setting": "[2]; tobacco Xanthi, pIPG833 bovine PGE, 1% Span 20 in shoot and root media, 75 explants", "result": 13}, {"measurement": "Fate of shoots on rooting medium", "setting": "[2]; tobacco, pIPG875 nematode lipase, 0.05% Span 20 on rooting medium", "result": "more than half of the shoots died"}, {"measurement": "Survival of rice grain explants on regeneration medium", "setting": "rice grain explants; 0.5% Span 20, Week 4", "result": "60/60"}, {"measurement": "Survival of rice grain explants on regeneration medium", "setting": "rice grain explants; 0.5% Span 20, Week 14", "result": "12/60"}, {"measurement": "Survival of rice grain explants on regeneration medium", "setting": "rice grain explants; 0.5% Span 20, Week 20", "result": "2/60"}, {"measurement": "Survival of rice grain explants on regeneration medium", "setting": "rice grain explants; 1% Span 20, Week 4", "result": "60/60"}, {"measurement": "Survival of rice grain explants on regeneration medium", "setting": "rice grain explants; 1% Span 20, Week 14", "result": "5/60"}, {"measurement": "Survival of rice grain explants on regeneration medium", "setting": "rice grain explants; 1% Span 20, Week 20", "result": "0/60"}, {"measurement": "Killing of rice explants in tissue culture (in words)", "setting": "rice grain explants; 1% Span 20, summary of Table 3", "result": "completely killed all rice explants in twenty weeks"}, {"measurement": "No. of rooted shoots", "setting": "[3]; 0.5% Span 20", "result": 2}, {"measurement": "Transformation frequency (%)", "setting": "[3]; 0.5% Span 20", "result": 3, "unit": "%"}, {"measurement": "No. of shoots emerged from seed-derived callus", "setting": "[3]; 0.5% Span 20 shoot medium", "result": 3}, {"measurement": "No. of rooted shoots", "setting": "[3]; 1% Span 20", "result": 0}, {"measurement": "Transformation frequency (%)", "setting": "[3]; 1% Span 20", "result": 0, "unit": "%"}, {"measurement": "No. of shoots emerged from seed-derived callus", "setting": "[3]; 1% Span 20 shoot medium", "result": 0}, {"measurement": "Callus pieces killed", "setting": "[3]; rice, pIPG833, Span 20 at 1%, after 15 weeks", "result": "over 90%"}, {"measurement": "No. of rooted shoots", "setting": "[4]; 0.25% Span 20", "result": 33}, {"measurement": "Transformation frequency (%)", "setting": "[4]; 0.25% Span 20", "result": 4, "unit": "%"}, {"measurement": "No. of independent petiole explants forming shoots", "setting": "[4]; 0.25% Span 20 shoot medium", "result": 33}, {"measurement": "No. of rooted shoots", "setting": "[4]; 0.5% Span 20", "result": 6}, {"measurement": "Transformation frequency (%)", "setting": "[4]; 0.5% Span 20", "result": 4, "unit": "%"}, {"measurement": "No. of independent petiole explants forming shoots", "setting": "[4]; 0.5% Span 20 shoot medium", "result": 6}, {"measurement": "No. of rooted shoots", "setting": "[4]; 1% Span 20", "result": 0}, {"measurement": "Transformation frequency (%)", "setting": "[4]; 1% Span 20", "result": 0, "unit": "%"}, {"measurement": "No. of independent petiole explants forming shoots", "setting": "[4]; 1% Span 20 shoot medium", "result": 0}, {"measurement": "Nontransgenic escape plants", "setting": "[4]; geranium, pIPG833, Span 20 at 0.25% in shooting medium and 0.125% in rooting medium", "result": 81, "unit": "%"}, {"measurement": "Leaf petioles killed", "setting": "[4]; geranium, pIPG833, after 10 weeks", "result": 100, "unit": "%"}, {"measurement": "Leaf petioles killed", "setting": "[4]; geranium, pIPG833, after three weeks", "result": 35, "unit": "%"}, {"measurement": "No. of rooted shoots", "setting": "[5]", "result": 28}]}]}
